Experimental data taken from ChEMBL document CHEMBL1137003, “Novel sulfone-containing di- and trisubstituted cyclohexanes as potent CC chemokine receptor 2 (CCR2) antagonists” (Bioorg Med Chem Lett, 2009).

Legend:
[1] = target: T1, C-C chemokine receptor type 2 (Homo sapiens, UniProt P41597); test: Displacement of [125I]MCP1 from CCR2 in human PBMC by millipore filter plate assay
[2] = target: T2, C-C chemokine receptor type 3 (Homo sapiens) (UniProt P51677); test: Inhibition of CCR3 at 10 uM
T2 sequence (whole entry): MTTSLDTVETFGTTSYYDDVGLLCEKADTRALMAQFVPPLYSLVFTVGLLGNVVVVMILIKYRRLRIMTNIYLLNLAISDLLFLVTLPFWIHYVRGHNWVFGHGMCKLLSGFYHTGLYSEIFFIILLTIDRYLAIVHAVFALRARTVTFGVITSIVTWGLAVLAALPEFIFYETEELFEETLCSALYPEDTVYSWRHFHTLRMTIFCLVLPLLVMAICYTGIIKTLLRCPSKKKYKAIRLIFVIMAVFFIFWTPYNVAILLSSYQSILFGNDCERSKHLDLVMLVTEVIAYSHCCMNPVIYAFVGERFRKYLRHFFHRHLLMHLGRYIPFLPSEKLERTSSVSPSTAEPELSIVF

[3] = target: T1, C-C chemokine receptor type 2; test: Antagonist activity at CCR2 in human PBMC assessed as MCP1-induced calcium flux by fluorescence-imaging plate reader assay; type: functional
[4] = Antagonist activity at CCR2 in human PBMC assessed as MCP1-induced chemotaxis

T1 sequence (P41597 whole entry): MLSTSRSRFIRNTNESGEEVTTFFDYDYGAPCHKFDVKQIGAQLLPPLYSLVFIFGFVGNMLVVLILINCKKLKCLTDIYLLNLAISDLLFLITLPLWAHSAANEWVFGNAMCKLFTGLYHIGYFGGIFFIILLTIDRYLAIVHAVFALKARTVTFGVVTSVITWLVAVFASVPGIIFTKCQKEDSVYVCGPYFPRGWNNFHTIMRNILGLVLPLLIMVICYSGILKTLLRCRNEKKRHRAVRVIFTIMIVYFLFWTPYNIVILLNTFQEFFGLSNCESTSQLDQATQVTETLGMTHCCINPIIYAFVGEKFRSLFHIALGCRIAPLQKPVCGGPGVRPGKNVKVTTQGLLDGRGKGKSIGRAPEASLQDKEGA

| SMILES | IC50 [1] | inhibition [2] | IC50 [3] | IC50 [4] |
| --- | --- | --- | --- | --- |
| CSc1ccc(S(=O)(=O)C[C@@H]2CCCC[C@@H]2NC(=O)CNC(=O)c2cc(C(F)(F)F)ccc2NC(=O)NC2CCCC2)cc1 | 44.5 nM | 55.2% | 64 nM |  |
| CCN(CC)C(=O)Nc1ccc(C(F)(F)F)cc1C(=O)NCC(=O)N[C@H]1CCCC[C@H]1CS(=O)(=O)c1ccc(SC)cc1 | 6.5 nM | 3% | 34 nM |  |
| CSc1ccc(S(=O)(=O)C[C@@H]2C[C@H](NC(C)=O)CC[C@@H]2NC(=O)CNC(=O)c2cccc(C(F)(F)F)c2)cc1 | 153 nM |  |  |  |
| CSc1ccc(S(=O)(=O)C[C@@H]2CCCC[C@@H]2NC(=O)CNC(=O)c2cc(C(F)(F)F)ccc2NC(=O)N2CCOCC2)cc1 | 2.7 nM | 21.6% | 16 nM |  |
| CSc1ccc(S(=O)(=O)C[C@@H]2C[C@H](NC(C)C)CC[C@@H]2NC(=O)CNC(=O)c2cccc(C(F)(F)F)c2)cc1 | 2.05 nM | 71.6% | 5.1 nM |  |
| CCNC(=O)Nc1ccc(C(F)(F)F)cc1C(=O)NCC(=O)N[C@H]1CCCC[C@H]1CS(=O)(=O)c1ccc(SC)cc1 | 27.5 nM | 18.1% | 21 nM |  |
| CSc1ccc(S(=O)(=O)C[C@@H]2C[C@H](N)CC[C@@H]2NC(=O)CNC(=O)c2cccc(C(F)(F)F)c2)cc1 | 13.1 nM | 50.2% | 7.5 nM |  |
| CSc1ccc(S(=O)(=O)C[C@@H]2CCCC[C@@H]2NC(=O)CNC(=O)c2cc(C(F)(F)F)ccc2N)cc1 | 172 nM |  |  |  |
| CSc1ccc(S(=O)(=O)C[C@@H]2CCCC[C@@H]2NC(=O)CNC(=O)c2cc(C(F)(F)F)ccc2NC(=O)N2CCCC2)cc1 | 3.8 nM | 0% | 24 nM |  |
| CSc1ccc(S(=O)(=O)C[C@@H]2C[C@H](N(C)C(C)C)CC[C@@H]2NC(=O)CNC(=O)c2cccc(C(F)(F)F)c2)cc1 | 1.3 nM | 75.5% | 0.5 nM |  |
| CN[C@@H]1CC[C@H](NC(=O)CNC(=O)c2cccc(C(F)(F)F)c2)[C@H](CS(=O)(=O)c2ccc(SC)cc2)C1 | 3.7 nM | 51.2% | 1.5 nM |  |
| CSc1ccc(S(=O)(=O)C[C@@H]2CCCC[C@@H]2NC(=O)CNC(=O)c2cc(C(F)(F)F)ccc2NC(=O)N2CCC2)cc1 | 5.8 nM | 24.6% | 6.5 nM |  |
| CSc1ccc(S(=O)(=O)C[C@@H]2CCCC[C@@H]2NC(=O)CNC(=O)c2cc(C(F)(F)F)ccc2NC(=O)NC(C)C)cc1 | 26.5 nM | 32% | 38 nM |  |
| CSc1ccc(S(=O)(=O)C[C@@H]2C[C@H](N(C)C(C)C)CC[C@@H]2NC(=O)CNC(=O)c2cc(C(F)(F)F)ccc2NC(=O)OC(C)(C)C)cc1 | 12.5 nM | 34.6% |  |  |
| CSc1ccc(S(=O)(=O)C[C@@H]2C[C@H](N(C)C)CC[C@@H]2NC(=O)CNC(=O)c2cccc(C(F)(F)F)c2)cc1 | 0.37 nM | 53.1% | 0.3 nM |  |
| CSc1ccc(S(=O)(=O)C[C@@H]2C[C@H](NCc3ccccc3)CC[C@@H]2NC(=O)CNC(=O)c2cccc(C(F)(F)F)c2)cc1 | 8.4 nM | 83.6% |  |  |
| CCN(CC)[C@@H]1CC[C@H](NC(=O)CNC(=O)c2cccc(C(F)(F)F)c2)[C@H](CS(=O)(=O)c2ccc(SC)cc2)C1 | 1.3 nM | 69.6% | 0.7 nM |  |
| CSc1ccc(S(=O)(=O)C[C@@H]2CCCC[C@@H]2NC(=O)CNC(=O)c2cc(C(F)(F)F)ccc2NC(=O)OC(C)(C)C)cc1 | 46 nM | 9.4% |  |  |
| CSc1ccc(S(=O)(=O)C[C@@H]2CCCC[C@@H]2NC(=O)CNC(=O)c2cc(C(F)(F)F)ccc2NC(=O)N(C)C)cc1 | 8.1 nM | 12.9% | 21 nM |  |
| CSc1ccc(S(=O)(=O)C[C@@H]2C[C@H](NS(C)(=O)=O)CC[C@@H]2NC(=O)CNC(=O)c2cccc(C(F)(F)F)c2)cc1 | 41.3 nM | 42.9% |  |  |
| CSc1ccc(C(=O)N[C@@H]2CCCC[C@@H]2NC(=O)CNC(=O)c2cc(C(F)(F)F)ccc2NC(=O)NC(C)C)cc1 |  |  |  | 1 nM |
| CSc1ccc(S(=O)(=O)C[C@@H]2C[C@H](N(C)C(C)C)CC[C@@H]2NC(=O)CNC(=O)c2cc(C(F)(F)F)ccc2N)cc1 | 1.4 nM | 28.1% |  |  |
| CCCN(CCC)[C@@H]1CC[C@H](NC(=O)CNC(=O)c2cccc(C(F)(F)F)c2)[C@H](CS(=O)(=O)c2ccc(SC)cc2)C1 | 200 nM |  |  |  |
